The values below come from patent publication US20130018033A1, “RAF INHIBITOR COMPOUNDS AND METHODS OF USE THEREOF” (ARRAY BIOPHARMA INC., priority 2009, published 2013).

For one test, the target named is T1, V600E full-length B-Raf (Homo sapiens, UniProt P15056, V600E).
T1 construct: 1 μM FSBA-MEK and 20 nM V600E full-length B-Raf; made in house; host or cells: Sf9 insect cells (baculovirus)
Nature of the test: B-Raf IC50 assay (Example A). The class given is biochemical. In outline: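 Sf9-expressed full-length V600E B-Raf (20 nM) phosphorylated 1 µM FSBA-modified wild-type MEK with 4 µM ATP plus [γ-33P]ATP in 25 mM Pipes pH 7.2, 100 mM KCl, 10 mM MgCl2. Enzyme and substrate were preincubated 15 min, and the reaction ran 60 min at 22 °C. It was TCA-quenched and filter-captured, and incorporated radioactivity was scintillation-counted.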

Test [1] concerns basal ERK1/2 phosphorylation in Malme-3M cells. Nature of the test: Cellular ERK 1/2 phosphorylation assay (Example A1). The class given is cell-based. Particulars: Homo sapiens, 1 hour incubation, pERK normalized to total ERK, read-out: P-ERK Malme3-M IC50. In outline: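 Malme-3M cells (24,000/well, RPMI-1640 with 10% FBS) were treated with compounds for 1 h at 37 °C, 1% DMSO final. Fixed, methanol-permeabilized cells were immunostained for pERK and total ERK and read by infrared fluorescence. pERK signal was normalized to total ERK.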

[2] abbreviates: B-Raf V600E assay of Example A, read-out: IC50.
The mark [3] stands for this setting: [γ-33P]ATP incorporation into FSBA-MEK, 4 μM ATP, read-out: BRAF V600E IC50.

Each structure is given as a SMILES string. Read-outs that look alike come from different tables or passages of the source.

T1 sequence (P15056 whole entry V600E): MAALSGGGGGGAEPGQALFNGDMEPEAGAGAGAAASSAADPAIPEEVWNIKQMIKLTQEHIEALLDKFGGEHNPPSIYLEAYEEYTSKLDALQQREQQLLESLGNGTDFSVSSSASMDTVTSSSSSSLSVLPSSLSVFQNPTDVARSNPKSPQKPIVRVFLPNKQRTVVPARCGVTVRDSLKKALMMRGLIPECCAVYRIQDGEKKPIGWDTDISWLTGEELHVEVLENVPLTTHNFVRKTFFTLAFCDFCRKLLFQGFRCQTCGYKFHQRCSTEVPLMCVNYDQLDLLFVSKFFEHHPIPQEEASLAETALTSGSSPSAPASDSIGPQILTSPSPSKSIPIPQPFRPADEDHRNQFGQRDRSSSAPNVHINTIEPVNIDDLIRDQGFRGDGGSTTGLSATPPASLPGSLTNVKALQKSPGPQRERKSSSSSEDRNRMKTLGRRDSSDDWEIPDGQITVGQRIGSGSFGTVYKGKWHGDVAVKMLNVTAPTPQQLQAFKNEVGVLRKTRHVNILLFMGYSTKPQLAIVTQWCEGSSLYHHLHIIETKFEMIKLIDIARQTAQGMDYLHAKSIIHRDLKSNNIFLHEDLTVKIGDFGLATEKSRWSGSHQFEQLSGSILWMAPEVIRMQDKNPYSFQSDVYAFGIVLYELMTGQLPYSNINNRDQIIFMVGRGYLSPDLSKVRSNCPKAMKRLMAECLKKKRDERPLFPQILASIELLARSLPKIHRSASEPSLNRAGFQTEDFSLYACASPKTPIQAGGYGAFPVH

Usually IC50 stands for the concentration needed to halve the response being measured. As to `CCCS(=O)(=O)Nc1ccc(Cl)c(NC(=O)c2ccnc3c(N)ncnc23)c1F` [Example 65, 4-Amino-pyrido[3,2-d]pyrimidine-8-carboxylic acid [6-chloro-2-fluoro-3-(propane-1-sulfonylamino)-phenyl]-amide], the IC50 was below 100 nM on V600E full-length B-Raf (setting [2]), 1.14 nM on V600E full-length B-Raf (setting [3]) and 9.4 nM in test [1].

Consider `CCCS(=O)(=O)Nc1ccc(F)c(NC(=O)c2cc(F)cc3c(N)ncnc23)c1Cl` [Example 78, 4-Amino-6-fluoro-quinazoline-8-carboxylic acid [2-chloro-6-fluoro-3-(propane-1-sulfonylamino)-phenyl]-amide], for which the IC50 at V600E full-length B-Raf (setting [2]) was below 100 nM; at V600E full-length B-Raf (setting [3]), 0.49 nM; in test [1], 15.7 nM.

As for `O=C(Nc1c(F)c(F)cc(NS(=O)(=O)CCCF)c1F)c1cccc2c(NC3CC3)ncnc12` [Example 51, 4-(Cyclopropylamino)-N-(2,3,6-trifluoro-5-(3-fluoropropylsulfonamido)phenyl)quinazoline-8-carboxamide], the IC50 on V600E full-length B-Raf (setting [2]) was below 1000 nM; on V600E full-length B-Raf (setting [3]), 143 nM; in test [1], 2310 nM.

As to `CCS(=O)(=O)Nc1ccc(F)c(NC(=O)c2cccc3c(N)ncnc23)c1Cl` [Example 20, 4-Amino-quinazoline-8-carboxylic acid (2-chloro-3-ethanesulfonyl-amino-6-fluoro-phenyl)-amide], the IC50 was below 100 nM on V600E full-length B-Raf (setting [2]), 2.24 nM on V600E full-length B-Raf (setting [3]) and 32.4 nM in test [1].

On to `CCCS(=O)(=O)Nc1ccc(Cl)c(NC(=O)c2cccc3c(N)ncnc23)c1Cl` [Example 7, 4-Amino-quinazoline-8-carboxylic acid [2,6-dichloro-3-(propane-1-sulfonylamino)-phenyl]-amide], for which the IC50 on V600E full-length B-Raf (setting [2]) was below 100 nM; on V600E full-length B-Raf (setting [3]), 0.07 nM; in test [1], 7.2 nM.

`Nc1ncnc2c(C(=O)Nc3c(Cl)ccc(NS(=O)(=O)CCCF)c3Cl)cccc12` [Example 27, 4-Amino-quinazoline-8-carboxylic acid [2,6-dichloro-3-(3-fluoro-propane-1-sulfonylamino)-phenyl]-amide]: the IC50 was below 100 nM at V600E full-length B-Raf (setting [2]), 0.08 nM at V600E full-length B-Raf (setting [3]) and 4.07 nM in test [1].

For `O=C(Nc1c(F)ccc(NS(=O)(=O)CC2CC2)c1F)c1cccc2cncnc12` [Example 56, Quinazoline-8-carboxylic acid (3-cyclopropylmethane-sulfonylamino-2,6-difluoro-phenyl)-amide], the IC50 is below 1000 nM on V600E full-length B-Raf (setting [2]), 204 nM on V600E full-length B-Raf (setting [3]) and 638 nM in test [1].

For the molecule `Nc1ncnc2c(C(=O)Nc3c(F)ccc(NS(=O)(=O)CC4CC4)c3Cl)cccc12` [Example 16, 4-Amino-quinazoline-8-carboxylic acid (2-chloro-3-cyclopropyl-methane-sulfonylamino-6-fluoro-phenyl)-amide], the IC50 at V600E full-length B-Raf (setting [2]) was below 100 nM; on V600E full-length B-Raf (setting [3]), 2.6 nM; in test [1], 15.2 nM.

As for `CCCS(=O)(=O)Nc1ccc(F)c(NC(=O)c2cc(C)cc3cncnc23)c1F` [Example 79, 6-Methyl-quinazoline-8-carboxylic acid [2,6-difluoro-3-(propane-1-sulfonylamino)-phenyl]-amide], the IC50 on V600E full-length B-Raf (setting [2]) is below 100 nM; at V600E full-length B-Raf (setting [3]), 58.8 nM; in test [1] it was 254 nM.

As to `CCCS(=O)(=O)Nc1ccc(F)c(NC(=O)c2cc(C#CCO)cc3c(N)ncnc23)c1F` [Example 40, 4-Amino-6-(3-hydroxy-prop-1-ynyl)-quinazoline-8-carboxylic acid [2,6-difluoro-3-(propane-1-sulfonylamino)-phenyl]-amide], the IC50 was below 100 nM on V600E full-length B-Raf (setting [2]), 2.2 nM at V600E full-length B-Raf (setting [3]) and 158 nM in test [1].

Regarding `CCN(C)S(=O)(=O)Nc1ccc(F)c(NC(=O)c2cccc3c(N)ncnc23)c1Cl` [Example 37, 4-Amino-N-(2-chloro-3-(N-ethyl-N-methylsulfamoylamino)-6-fluorophenyl)quinazoline-8-carboxamide], the figures for the IC50 (at V600E full-length B-Raf (setting [2]); on V600E full-length B-Raf (setting [3]); in test [1]) were below 100 nM, 21.5 nM and 39.7 nM, respectively.
